According to patent publication EP2181708A1, “Use of Valproate for reducing CHOP levels, particularly in a mammal having SCI” (Universitat Autonoma de Barcelona, priority 2008, dated 2010):

Tests used:
[1] = tested on: CHOP; assay: Western blot of CHOP in spinal cord after contusion SCI; type: in vivo, Sprague-Dawley rats
Protocol: (§1) Adult females Sprague-Dawley rats aged 11 weeks (220-250 g) were anesthetized with pentobarbital (40 mg/kg i.p.). When unresponsive, the vertebral column was exposed and a laminectomy carried out at T8-T9 levels. Rostral T7 and caudal T10 vertebral bodies were clamped with Adson stabilizing forceps, and carefully adjusted to level the spinal cord in the horizontal plane. A contusion injury was performed using the Infinite Horizon impactor device (Precision Scientific Instruments, Lexington, KY). The stainless steel impounder tip was placed at 3-4 mm above the exposed spinal cord, and then a fast impact produced applying forces of 150 or 250 kilodynes (KDyn) to the exposed spinal cord. The wound was sutured with 5-0 silk thread in the muscular plane and the skin was closed with small clips and disinfected with povidone iodine solution. Sham-operated animals received the same surgical procedure but sustained no impact injury; the spinal cord was left exposed for 5 min. The animals were maintained in a warm environment until full recovery, and received preventive antibiotic (amoxicyline) and analgesic (buprenorphine) treatment. All animals were kept under standard conditions of light and temperature and fed with food and water ad libitum. The procedures involving animals were approved by the Ethics Committee of our institution, and followed the European Communities Council Directive 86/609/EEC.
VPA was intraperitoneally administered at an initial dose of 150 mg/kg by 3 h after surgery, and then a dose of 300 mg/Kg either every 24 h or every 12 h during the first week post-surgery, following by a dose of 300 mg/Kg every 24 h for the next two weeks. Groups of rats subjected to SCI or sham operation received VPA or saline injections following the same regime. […]
(§2) Rats were re-anesthetised and decapitated at 3 dpo for sample preparation. […] After clearance, protein concentration was measured by the BCA method assay (BCA Protein Assay kit, Pierce). […]

[2] = tested on: BiP/Grp78; assay: Western blot of BiP/Grp78 in spinal cord after contusion SCI; type: in vivo, Sprague-Dawley rats
Protocol: as §1, with “All animals were kept under standard conditions of light and temperature and fed with food and water ad libitum. The procedures involving animals were approved by the Ethics Committee of our institution, and followed the European Communities Council Directive 86/609/EEC.” left out
as §2

[3] = tested on: CHOP; assay: Tunicamycin-induced ER stress in HEK cell line, Western blot of CHOP; type: cell-based; conditions: 3 µg/ml tunicamycin, valproate
Protocol: Primary fibroblasts obtained from rat sciatic nerve and HEK cell line were cultured in Dulbecco's modified Eagle's/F-12 medium supplemented with 10% fetal calf serum (Gibco). Fibroblasts were treated with 3 µg/mL of tunicamycin (Sigma) for 4 h and harvested in RIPA buffer for protein extraction.
We have recently reported that SCI triggers an unbalanced UPR characterized by unchanged levels of BiP/Grp78 levels but progressive accumulation of the pro-apoptotic protein CHOP, with maximal CHOP levels found at 3 days post-injury in the weight-drop contusion model (Penas et al, 2007). In this study, we used a contusion model using an impactor device to specifically control the force (either 150 KDyn or 250 KDyn) to be apply on the T8 laminectomized spinal cord segment. We analyzed the spinal cord 8 mm-length segment that includes the lesion epicenter from sham-operated animals and from VPA treated or vehicle treated SCI animals at 3 days after operation. […] Thus, we increased the amount of VPA administered to 300 mg/kg every 12 h, as reported previously for a brain stroke rat model (Kim et al, 2007), and analyzed the effect using two different contusion forces of 150 and 250 KDyn. We observed that the levels of CHOP were directly proportional to the severity of the lesion; the more severe, the higher the level. […]

[4] = tested on: hind limb locomotion; assay: Open-field walking test (BBB scale) after spinal cord contusion; type: in vivo, Sprague-Dawley rats; conditions: SCI 250 Kdyn
Protocol: as §1, with “The procedures involving animals were approved by the Ethics Committee of our institution, and followed the European Communities Council Directive 86/609/EEC.” left out

[5] = VPA 300 mg/kg every 12 h i.p., contusion 150 and 250 KDyn, three days post-injury
[6] = VPA 300mg/kg once per day i.p., vs saline, 3 days post-injury

With CCCC(CCC)C(=O)O [VPA, 2-propylpentanoic acid] the CHOP levels [1, 5] was “significantly reduced”, the “CHOP level reduction, 250 KDyn versus 150 KDyn contusion” value ([1]; VPA 300 mg/kg every 12 h i.p., three days post-injury) was “more pronounced” and the CHOP levels [1, 6] was “did not produce changes”. The BiP levels [2, 5] was “not able to alter”, the BiP levels [2, 6] was “did not produce changes” and the “CHOP accumulation promoted by tunicamycin” value [3] was “can be attenuated”. The BBB score ([4]; 7 days post-surgery, average of both groups) was 3-4 and the BBB score ([4]; 35 days, VPA 300 mg/kg every 12 h one week then every 24 h two weeks, saline 8) was 12.
